The target of data set [1] is T1, human TREK-1 (hTREK-1) (Homo sapiens, UniProt O95069).
T1 construct: expressed in transfected cells
T1 sequence (O95069 1-426): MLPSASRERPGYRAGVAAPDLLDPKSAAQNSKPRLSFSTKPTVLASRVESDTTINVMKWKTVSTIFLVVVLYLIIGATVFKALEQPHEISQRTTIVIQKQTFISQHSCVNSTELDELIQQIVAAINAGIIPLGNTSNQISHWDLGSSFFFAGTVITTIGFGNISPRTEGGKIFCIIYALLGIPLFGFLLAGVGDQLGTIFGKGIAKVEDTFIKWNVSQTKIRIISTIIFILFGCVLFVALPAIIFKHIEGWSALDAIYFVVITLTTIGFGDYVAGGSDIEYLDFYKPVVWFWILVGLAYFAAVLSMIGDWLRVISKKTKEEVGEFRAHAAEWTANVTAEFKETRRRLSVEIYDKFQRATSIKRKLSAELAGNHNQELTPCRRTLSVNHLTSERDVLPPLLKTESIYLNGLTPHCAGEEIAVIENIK
Put plainly: TREK-1 thallium flux assay (CHO-K1 cells stably expressing hTREK-1). Type of data set: cell-based. The following applies: human TREK-1, thallium flux; read-out: h TREK-1 Tl+ IC50. On the procedure:
Procedures for Biological Experiments
TREK-1 Thallium flux assay
CHO-K1 cells stably expressing hTREK-1 were cultured in T225 flask. The cells were loaded with FluxOR dye and plated in 384 well plate at the experiment day. Test compounds or control compound (tert-butyl (3-((4-(benzyloxy)-2-methylphenyl)carbamoyl)-4-chlorophenyl)carbamate) or 0.3% DMSO (vehicle control) were added directly to the cell plates and incubated for 10 min, and then treated with thallium stimulus buffer to initiate thallium flux.
To measure the efficacy and potency of test compounds, the change in fluorescence intensity (ΔRatio) and % inhibition were calculated using the following equations:
ΔRatio = (fluorescence intensity at 25 seconds after thallium addition)/(average of fluorescent intensity before thallium addition)
(§1) 0.3% DMSO - ΔRatio of 10 μM control compound)}x100
(§2) % inhibition vs compound concentration were plotted in XLfit and calculated IC50.
CHO-K1 cells stably expressing human TREK-1 (hTREK-1) were cultured in T225 flask.
The cells were loaded with FluxOR dye and plated in 384 well plate at the experiment day. Test compounds or control compound (tert-butyl (3-((4-(benzyloxy)-2-methylphenyl)carbamoyl)-4-chlorophenyl)carbamate) or 0.3% DMSO (vehicle control) which were prepared on separate plates were added to the cell plates and incubated for 10 min, and then the cells with test compounds or […]
chlorophenyl)carbamate) or 0.3% DMSO (vehicle control) were treated with thallium stimulus buffer to initiate thallium flux. To measure the efficacy and potency of test compounds, the change in fluorescence intensity (ΔRatio) and % inhibition were calculated using the following equations: […]

The nature of data set [2]: ChromatoLogD. Type of data set: physicochemical.
For data set [3], the target named is T2, human TREK-2 (hTREK-2) (Homo sapiens, UniProt P57789).
T2 construct: expressed in transfected cells
T2 sequence (P57789 1-538): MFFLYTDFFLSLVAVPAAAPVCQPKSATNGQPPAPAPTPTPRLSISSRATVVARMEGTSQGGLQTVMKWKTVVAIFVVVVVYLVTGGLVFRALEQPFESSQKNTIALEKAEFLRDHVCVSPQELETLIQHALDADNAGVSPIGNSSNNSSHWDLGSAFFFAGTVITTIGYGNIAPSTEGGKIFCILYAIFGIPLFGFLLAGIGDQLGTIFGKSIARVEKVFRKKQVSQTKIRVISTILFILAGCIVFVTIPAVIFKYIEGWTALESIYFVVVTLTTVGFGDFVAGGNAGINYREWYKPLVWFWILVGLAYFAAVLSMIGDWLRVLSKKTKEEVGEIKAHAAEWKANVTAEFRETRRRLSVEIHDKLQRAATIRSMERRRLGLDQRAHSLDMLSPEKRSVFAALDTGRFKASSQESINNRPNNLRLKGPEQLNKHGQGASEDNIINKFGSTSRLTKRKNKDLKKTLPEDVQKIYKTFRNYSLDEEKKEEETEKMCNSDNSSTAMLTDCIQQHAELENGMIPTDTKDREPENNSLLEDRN
Put plainly: TREK-2 thallium flux assay (HEK293 cells stably expressing hTREK-2). It is filed as cell-based. The following applies: human TREK-2, thallium flux; read-out: h TREK-2 Tl+ IC50. How it is done: as §1, §2
TREK-2 Thallium flux assay
HEK293 cells stably expressing human TREK-2 (hTREK-2) are plated in 384-well plates, cultured overnight, loaded with Thallos dye the following day. Test compounds or control compound (tert-butyl (3-((4-(benzyloxy)-2-methylphenyl)carbamoyl)-4-chlorophenyl)carbamate) or 0.3% DMSO (vehicle control) which are prepared on separate plates are added to the cell plates and incubated for 10 min, and then the cells were treated with thallium stimulus buffer to initiate […]
To measure the efficacy and potency of test compounds, the change in fluorescence intensity (ΔRatio) and % inhibition are calculated using the following equations: […]

Molecules are shown by their SMILES.

Usually IC50 stands for the concentration at which inhibition is half-maximal. Regarding `Cc1cc(C#Cc2ccccc2)cnc1NC(=O)c1c(Cl)cnn1CC1COCCO1` (stereo not drawn) [Compound 8, 1-((1,4-Dioxan-2-yl)methyl)-4-chloro-N-(3-methyl-5-(phenylethynyl)pyridin-2-yl)-1H-pyrazole-5-carboxamide], the IC50 in data set [1] is 670 nM. The chromatographic logD is lipophilicity estimated from chromatographic retention. Take `Cc1cc(C#Cc2ccccc2)cnc1NC(=O)c1cc(NC(=O)OC(C)(C)C)ccc1Cl` [Compound 13e]: in data set [1], the IC50 is 140 nM. The chromatographic logD in data set [2] came to 5.15. As for `Cc1cc(C#Cc2ccccc2)cnc1NC(=O)c1c(Cl)cnn1CC1CCOCC1` [Compound 14b, 4-Chloro-N-(3-methyl-5-(phenylethynyl)pyridin-2-yl)-1-((tetrahydro-2H-pyran-4-yl)methyl)-1H-pyrazole-5-carboxamide], the IC50 in data set [1] is 200 nM. Consider `CC(=O)N1CCC(n2ncc(Cl)c2C(=O)Nc2ncc(C#Cc3ccccc3)cc2C)C(F)C1` (stereo not drawn) [Compound 16a, 1-(1-Acetyl-3-fluoropiperidin-4-yl)-4-chloro-N-(3-methyl-5-(phenylethynyl)pyridin-2-yl)-1H-pyrazole-5-carboxamide], for which the IC50 in data set [1] was found to be 98 nM; in data set [3] it was 280 nM.

For the compound `CC(=O)N1CC[C@@H](n2ncc(Cl)c2C(=O)Nc2ncc(C#Cc3ccccc3)cc2C)[C@@H](F)C1` [Compound 16c, 1-((3S,4R)-1-Acetyl-3-fluoropiperidin-4-yl)-4-chloro-N-(3-methyl-5-(phenylethynyl)pyridin-2-yl)-1H-pyrazole-5-carboxamide], the values for the IC50 in data set [1] and in data set [3] were 160 nM and 530 nM, respectively.

In the case of `CC(=O)N1CC[C@H](n2ncc(Cl)c2C(=O)Nc2ncc(C#Cc3ccccc3)cc2C)[C@H](F)C1` [Compound 16d, 1-((3R,4S)-1-Acetyl-3-fluoropiperidin-4-yl)-4-chloro-N-(3-methyl-5-(phenylethynyl)pyridin-2-yl)-1H-pyrazole-5-carboxamide], the IC50 in data set [3] was 530 nM.

`CC(=O)N1CC[C@H](n2ncc(Cl)c2C(=O)Nc2ncc(C#Cc3ccccc3)cc2F)[C@H](F)C1` [Compound 16e, 1-((3R,4S)-1-Acetyl-3-fluoropiperidin-4-yl)-4-chloro-N-(3-fluoro-5-(phenylethynyl)pyridin-2-yl)-1H-pyrazole-5-carboxamide]: the IC50 in data set [1] was found to be 70 nM; in data set [3], 330 nM.

For `CC(=O)N1CC[C@H](n2ncc(Cl)c2C(=O)Nc2ncc(C#Cc3ccccc3)cc2F)[C@@H](F)C1` [Compound 16f, 1-((3S,4S)-1-Acetyl-3-fluoropiperidin-4-yl)-4-chloro-N-(3-fluoro-5-(phenylethynyl)pyridin-2-yl)-1H-pyrazole-5-carboxamide], in data set [3], the IC50 came to 470 nM.

For the origin of these results see publication PMC12621189, “Optimization of Selective and CNS Penetrant Alkyne-Based TREK Inhibitors: The Discovery and Characterization of ONO-9517601 (VU6022856) and ONO-7927846 (VU6024391)” (Journal of Medicinal Chemistry, 2025).
